We go through 28 compounds from patent US10301284B2, “Therapeutic inhibitory compounds” (LifeSci Pharmaceuticals, Inc., priority 2016, dated 2019).

The test has as its target human Plasma Kallikrein (Homo sapiens (Human), UniProt P03952). In words: In vitro enzyme inhibition of human plasma kallikrein (Pro-Phe-Arg-AMC cleavage). The test is classed as biochemical. The protocol: The ability of the compounds disclosed herein to inhibit human plasma kallikrein activity was quantified according to the procedures below.
A 10 mM solution of the test compound was made in DMSO. This solution was serially diluted 1:5 in DMSO to yield 2000, 400, 80, 16, 3.2, 0.64, 0.128, 0.0256 and 0.00512 μM compound test solutions. A control tube containing only DMSO is included. 16 μL of each compound test solution was combined with 384 μL of assay buffer (50 mM Tris-HCl pH 7.5, 150 mM NaCl, 0.01% Triton X-100) to yield a “4× test compound buffer stock”.
Separately, a 40 nM solution of human Plasma Kallikrein (Abcam) and a 93.6 μM solution Pro-Phe-Arg-AMC (Bachem) were made using assay buffer. These solutions are hereby referred to as 4×hPK and 2×PFR-AMC, respectively.
60 μL of each 4× test compound buffer stock was combined with 60 μL of 4×hPK to yield 120 μL of “2× test compound buffer stock/2×hPK”. 50 μL was removed from this mixture and placed into duplicate wells on a Microfluor 1Black U-bottom microtiter plate (Thermo Scientific). This plate was incubated for 5 minutes at 37° C. To each well, 50 μL of pre-warmed 2×PFR-AMC was added to start the enzymatic reaction. Cleavage of PFR-AMC was monitored in a Biotek Synergy H4 reader set at 37° C. Readings are taken every 43 seconds for 1 hour. The highest mean velocity over 20 reads (˜15 minutes) is used to calculate the IC50. The IC50 is calculated using the Gen5 (Biotek Instruments).
The ability of the compounds listed in Table 2 to inhibit human plasma kallikrein activity was determined.

The mark [1] stands for this setting: human plasma kallikrein, PFR-AMC substrate, 37° C., read-out: hPK IC50.

Each structure is given as a SMILES string. Read-outs that look alike come from different tables or passages of the source. Where only a bound is given, the exact number is not on record here.

Sequence of human Plasma Kallikrein (P03952 391-638 limits assumed): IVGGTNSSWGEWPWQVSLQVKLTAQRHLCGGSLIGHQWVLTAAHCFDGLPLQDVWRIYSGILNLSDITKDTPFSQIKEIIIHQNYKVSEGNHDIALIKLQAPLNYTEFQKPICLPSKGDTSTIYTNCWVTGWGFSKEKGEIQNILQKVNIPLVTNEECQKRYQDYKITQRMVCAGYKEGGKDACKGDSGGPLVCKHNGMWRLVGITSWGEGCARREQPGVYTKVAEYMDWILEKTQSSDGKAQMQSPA
Sequence of human Plasma Kallikrein (P03952 20-390 partner limits assumed): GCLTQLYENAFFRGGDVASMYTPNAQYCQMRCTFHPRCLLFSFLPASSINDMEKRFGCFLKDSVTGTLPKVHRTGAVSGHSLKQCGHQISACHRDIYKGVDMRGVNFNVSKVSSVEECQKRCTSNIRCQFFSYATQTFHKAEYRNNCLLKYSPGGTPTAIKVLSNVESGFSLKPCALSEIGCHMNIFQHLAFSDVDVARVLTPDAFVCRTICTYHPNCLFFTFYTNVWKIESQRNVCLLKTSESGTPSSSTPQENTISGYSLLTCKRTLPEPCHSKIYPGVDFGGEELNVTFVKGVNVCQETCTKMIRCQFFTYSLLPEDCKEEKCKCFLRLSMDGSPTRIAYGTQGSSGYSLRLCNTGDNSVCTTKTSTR

Consider `Cc1cc(N)nc(C)c1CNC(=O)c1nnc(Cc2cc(C(C)(C)O)c3ncc(Cl)cc3c2)o1` [Example 86, N-((6-amino-2,4-dimethylpyridin-3-yl)methyl)-5-((3-chloro-8-(2-hydroxypropan-2-yl)quinolin-6-yl)methyl)-1,3,4-oxadiazole-2-carboxamide], for which, under setting [1], the 50% inhibitory concentration (IC50) was less than 100 nM.
Regarding `Cc1cc(N)nc(C)c1CNC(=O)c1cn(Cc2ccc3ncc(Cl)cc3c2)c2ncnc(N)c12` [Example 34, 4-amino-7-(3-chloro-quinolin-6-ylmethyl)-7H-pyrrolo[2,3-d]pyrimidine-5-carboxylic acid (6-amino-2,4-dimethyl-pyridin-3-ylmethyl)-amide], the concentration for half-maximal inhibition (IC50) under setting [1] is less than 100 nM.
With `Cc1cc(N)nc(C)c1CNC(=O)c1nn(Cc2ccc3ncc(Cl)cc3c2)c2cc[nH]c(=O)c12` [Example 120, N-((6-amino-2,4-dimethylpyridin-3-yl)methyl)-1-((3-chloroquinolin-6-yl)methyl)-4-oxo-4,5-dihydro-1H-pyrazolo[4,3-c]pyridine-3-carboxamide], under setting [1], the 50% inhibitory concentration (IC50) fell in the range of 1000 to 10000 nM.
Regarding `Cc1cc(N)nc(C)c1CNC(=O)c1cn(C)c(Cc2ccc3ncc(Cl)cc3c2)n1` [Example 104, N-((6-amino-2,4-dimethylpyridin-3-yl)methyl)-2-((3-chloroquinolin-6-yl)methyl)-1-methyl-1H-imidazole-4-carboxamide], the half-inhibitory concentration (IC50) under setting [1] is greater than 10000 nM.
As to `Cc1cc(N)nc(C)c1CNC(=O)c1cn(Cc2ccc3ncc(Cl)cc3c2)nc1C(F)F` [Example 91, N-((6-amino-2,4-dimethylpyridin-3-yl)methyl)-1-((3-chloroquinolin-6-yl)methyl)-3-(difluoromethyl)-1H-pyrazole-4-carboxamide], the IC50 under setting [1] is less than 100 nM.
The same measure, in the same setting: to `Cc1cc(N)nc(C)c1CNC(=O)c1cn(Cc2ccc3ncc(Cl)cc3c2)c2cc[nH]c(=O)c12` [Example 118, N-((6-amino-2,4-dimethylpyridin-3-yl)methyl)-1-((3-chloroquinolin-6-yl)methyl)-4-oxo-4,5-dihydro-1H-pyrrolo[3,2-c]pyridine-3-carboxamide] belongs greater than 10000 nM; to `N#Cc1nn(Cc2cc(F)c3ncc(Cl)cc3c2)cc1C(=O)NCc1ccc2[nH]cc(Cl)c2c1F` [Example 57, N-((3-chloro-4-fluoro-1H-indol-5-yl)methyl)-1-((3-chloro-8-fluoroquinolin-6-yl)methyl)-3-cyano-1H-pyrazole-4-carboxamide], 100 to 1000 nM.
On the same count and under the same terms, to `Cc1nc(N)ccc1CNC(=O)c1cn(Cc2ccc3ncc(Cl)cc3c2)nc1C#N` [Example 77, N-((6-amino-2-methylpyridin-3-yl)methyl)-1-((3-chloroquinolin-6-yl)methyl)-3-cyano-1H-pyrazole-4-carboxamide] belongs less than 100 nM.
The same measure, in the same setting: to `Cc1cc(N)nc(C)c1CNC(=O)c1cn(Cc2ccc3ncc(Cl)cc3c2)c2ccccc12` [Example 11, N-((6-amino-2,4-dimethylpyridin-3-yl)methyl)-1-((3-chloroquinolin-6-yl)methyl)-1H-indole-3-carboxamide] belongs less than 100 nM.
For `Cc1cc(N)nc(C)c1CNC(=O)c1cn(Cc2ccc3ncc(Cl)cc3c2)c2ncnc(C#N)c12` [Example 136, N-((6-amino-2,4-dimethylpyridin-3-yl)methyl)-7-((3-chloroquinolin-6-yl)methyl)-4-cyano-7H-pyrrolo[2,3-d]pyrimidine-5-carboxamide], the IC50 was 100 to 1000 nM.
Regarding `N#Cc1nn(Cc2ccc3ncc(Cl)cc3c2)cc1C(=O)NCc1ccc2c(N)nccc2c1` [Example 49, N-((1-aminoisoquinolin-6-yl)methyl)-1-((3-chloroquinolin-6-yl)methyl)-3-cyano-1H-pyrazole-4-carboxamide], under setting [1], the IC50 was less than 100 nM.
Turning to `Cc1cc(N)nc(C)c1CNC(=O)c1c(C(F)(F)F)nnn1Cc1ccc2ncc(Cl)cc2c1` [Example 141, N-((6-amino-2,4-dimethylpyridin-3-yl)methyl)-1-((3-chloroquinolin-6-yl)methyl)-4-(trifluoromethyl)-1H-1,2,3-triazole-5-carboxamide], under setting [1], the IC50 was greater than 10000 nM.
On to `O=C(NCc1cnc2[nH]cc(Cl)c2c1)c1nnc(Cc2ccc3ncc(Cl)cc3c2)o1` [Example 45, N-((3-chloro-1H-pyrrolo[2,3-b]pyridin-5-yl)methyl)-5-((3-chloroquinolin-6-yl)methyl)-1,3,4-oxadiazole-2-carboxamide], for which the IC50 under setting [1] is 100 to 1000 nM.
Same read-out and setting: to `N#Cc1nn(Cc2cc(F)c3ncc(Cl)cc3c2)cc1C(=O)NCc1cnc2[nH]cc(Cl)c2c1` [Example 56, N-((3-chloro-1H-pyrrolo[2,3-b]pyridin-5-yl)methyl)-1-((3-chloro-8-fluoroquinolin-6-yl)methyl)-3-cyano-1H-pyrazole-4-carboxamide] belongs less than 100 nM; to `Cc1cc(N)nc(C)c1CNC(=O)c1cn(Cc2ccc3ncc(Cl)cc3c2)c2cnc(Cl)cc12` [Example 117, N-((6-amino-2,4-dimethylpyridin-3-yl)methyl)-5-chloro-1-((3-chloroquinolin-6-yl)methyl)-1H-pyrrolo[2,3-c]pyridine-3-carboxamide], less than 100 nM.
On the same count and under the same terms, to `O=C(NCc1ccc2[nH]cc(Cl)c2c1F)c1nnc(Cc2ccc3ncc(Cl)cc3c2)o1` [Example 43, N-((3-chloro-4-fluoro-1H-indol-5-yl)methyl)-5-((3-chloroquinolin-6-yl)methyl)-1,3,4-oxadiazole-2-carboxamide] belongs 100 to 1000 nM.
In the case of `Cc1cc(N)nc(C)c1CNC(=O)c1cn(Cc2ccc3ncc(Cl)cc3c2)c(C(N)=O)n1` [Example 111, N4-((6-amino-2,4-dimethylpyridin-3-yl)methyl)-1-((3-chloroquinolin-6-yl)methyl)-1H-imidazole-2,4-dicarboxamide], under setting [1], the IC50 lay in the range of 100 to 1000 nM.
For the compound `Cc1cc(N)nc(C)c1CNC(=O)c1cn(Cc2ccc3ncc(Cl)cc3c2)nc1C(C)O` (stereo not shown) [Example 94, N-((6-amino-2,4-dimethylpyridin-3-yl)methyl)-1-((3-chloroquinolin-6-yl)methyl)-3-(1-hydroxyethyl)-1H-pyrazole-4-carboxamide], under setting [1], the IC50 was less than 100 nM.
Turning to `COc1ccc2c(n1)c(C(=O)NCc1c(C)cc(N)nc1C)cn2Cc1ccc2ncc(Cl)cc2c1` [Example 128, N-((6-amino-2,4-dimethylpyridin-3-yl)methyl)-1-((3-chloroquinolin-6-yl)methyl)-5-methoxy-1H-pyrrolo[3,2-b]pyridine-3-carboxamide], the IC50 was in the range of 1000 to 10000 nM.
Consider `Cc1nc(N)ccc1CNC(=O)c1oc(Cc2ccc3ncc(Cl)cc3c2)nc1C#N` [Example 88, N-((6-amino-2-methylpyridin-3-yl)methyl)-2-((3-chloroquinolin-6-yl)methyl)-4-cyanooxazole-5-carboxamide], for which the half-inhibitory concentration (IC50) under setting [1] was in the range of 100 to 1000 nM.
On to `O=C(NCc1n[nH]c2ccc(Cl)cc12)c1nnc(Cc2ccc3ncc(Cl)cc3c2)o1` [Example 42, N-((5-chloro-1H-indazol-3-yl)methyl)-5-((3-chloroquinolin-6-yl)methyl)-1,3,4-oxadiazole-2-carboxamide], for which the IC50 under setting [1] was in the range of 100 to 1000 nM.
Regarding `COc1cc2c(C(=O)NCc3c(C)cc(N)nc3C)cn(Cc3ccc4ncc(Cl)cc4c3)c2cn1` [Example 121, N-((6-amino-2,4-dimethylpyridin-3-yl)methyl)-1-((3-chloroquinolin-6-yl)methyl)-5-methoxy-1H-pyrrolo[2,3-c]pyridine-3-carboxamide], the concentration for half-maximal inhibition (IC50) under setting [1] is less than 100 nM.
Still for that read-out and setting: then `Cc1cc(N)nc(C)c1CNC(=O)c1cnn(Cc2cc(F)c3ncc(Cl)cc3c2)c1C(N)=O` [Example 71, N4-((6-amino-2,4-dimethylpyridin-3-yl)methyl)-1-((3-chloro-8-fluoroquinolin-6-yl)methyl)-1H-pyrazole-4,5-dicarboxamide], with greater than 10000 nM; and `Cc1cc(N)nc(C)c1CNC(=O)c1cn(Cc2cc(S(N)(=O)=O)c3ncc(Cl)cc3c2)nc1C#N` [Example 60, N-((6-amino-2,4-dimethylpyridin-3-yl)methyl)-1-((3-chloro-8-sulfamoylquinolin-6-yl)methyl)-3-cyano-1H-pyrazole-4-carboxamide], with less than 100 nM.
Take `COc1ccc2c(n1)c(C(=O)NCc1c(C)cc(N)nc1C)nn2Cc1ccc2ncc(Cl)cc2c1` [Example 137, N-((6-amino-2,4-dimethylpyridin-3-yl)methyl)-1-((3-chloroquinolin-6-yl)methyl)-5-methoxy-1H-pyrazolo[4,3-b]pyridine-3-carboxamide]: the IC50 is 100 to 1000 nM.
Regarding `Cc1cc(N)nc(C)c1CNC(=O)c1nn(Cc2ccc3ncc(Cl)cc3c2)c2cccc(N)c12` [Example 33, 4-amino-N-((6-amino-2,4-dimethylpyridin-3-yl)methyl)-1-((3-chloroquinolin-6-yl)methyl)-1H-indazole-3-carboxamide], the IC50 is 100 to 1000 nM.
In the case of `Cc1cc(N)nc(C)c1CNC(=O)c1ncc(Cc2ccc3ncc(Cl)cc3c2)[nH]1` [Example 41, N-((6-amino-2,4-dimethylpyridin-3-yl)methyl)-5-((3-chloroquinolin-6-yl)methyl)-1H-imidazole-2-carboxamide], the IC50 under setting [1] lay in the range of 100 to 1000 nM.
`Cc1nc(N)ccc1CNC(=O)c1cnc(Cc2ccc3ncc(Cl)cc3c2)o1` [Example 90, N-((6-amino-2-methylpyridin-3-yl)methyl)-2-((3-chloroquinolin-6-yl)methyl)oxazole-5-carboxamide]: under setting [1], the half-inhibitory concentration (IC50) is less than 100 nM.

Usually IC50 stands for the concentration that inhibits the measured activity by half.
